Laboratory results from patent US6476203B1, “Safe pharmaceutical composition for treating and preventing infertility and increasing immune function” (priority 2002, dated 2002).
Marks after values point to notes of the source that are not given here.

What was measured:
male mice = assay: Effect of ICN on sexual behavior (ejaculation experiments); type: in vivo
Excerpt: Selected 50 mice including male: 28-32g and female: 24-26g. The age of mice is over 8 weeks. The mice were divided normal group, suspend-loaded group, large dosage of ICN group, small dosage of ICN group and positive control group. The index of major sexual behaviors of male mice is ejaculation experiments operated on 15th day.

interleukin-2 (rIL-2) = assay: Effect of ICN on interleukin-2 (rIL-2); type: in vivo; settings: treatment group
Excerpt: The methods of determination rIL-2 were regular.

white blood cells = assay: Effect of ICN on white blood cells in rats treated by cyclophosphamide; type: in vivo
Excerpt: Action of ICN and cyclophosphamide on white blood cells was investigated by means of white blood cells assay. […] Method of testing in animal is standard. The dosage of ICN and cyclophosphamide is the same as in above examples. Time of treatment is 10 days.

Lipoperoxides = assay: Effect on peroxidation (hepatic lipoperoxide content); type: in vivo
Description: The animal experiments were performed as previously described. Hepatic lipoperoxide content was determined. In the present study, the effect of SCS on lipoperoxides was examined. It is known that the pathogenesis of CCl4—induced hepatic damage involved reactive oxidant species increasing from the metabolism. The liver injure caused by CCl4 is due to the formation of a reactive toxic metabolite by the hepatic cytochrome P-450 system.

lymphocytes = assay: Effect of ICN on lymphoblastoid transformation (3H-TdR liquid scintillation); type: in vivo, mice; settings: 3H-TdR uptake, PHA-stimulated lymphocytes
Description: (1) Experimental procedure of animal is the same as in Example 2.
(2) Lemphoblastoid transformation test:
I. Reagents and conditions for cell culture
a. Culture media—RPMI 1640, medium 199 minimal essential medium (Eagle).
b. Buffer—Hepes buffer, the final concentration at 37° C. was 25 mM, to maintain the pH of the medium at 7.31.
c. Serum—generally 15-205 fetal bovine serum was incorporated, for lymphocytes from mice, 5% was used.
d. Gaseous phase—5% CO2 in air.
e. Cell concentration—generally 1-2 c 10^6/ml.
f. Stimulants—20μl/ml for phytohemagglutinin containing polysaccharide (PHA-M) or 10 μl/ml for polysaccharide-free purified phytohemagglutinin (PHA-P).
II. Measured by liquid scintillation
a. The conditions of cell culture are same as above. ^3H-TdR was added after 48 hours of incubation at a final concentration of 1 μCi/ml and continued the incubation for 24 hours.
b. Washed the cells twice with cold normal saline and the erythrocytes were lysed. The intact lymphocytes were again washed once with cold saline. Spun down the lymphocytes and added 2 ml of 10% trichloroacetic acid to precipitate the protein. Washed twice with normal saline. Added 2 ml of ethanol:ether (1:1) to wash once. 0.2 ml of formic acid was then added for digestion till the precipitate was dissolved.
c. Added 4 ml of scintillation fluid to 0.1 ml of the final sample and counted in a liquid scintillation counter.

testosterone = assay: Effect of ICN on testosterone (radioimmune method); type: in vivo, Wistar male rats
Description: Thirty normal Wistar male rats weighing 280+20 g were selected.
The rats were killed 30th days after the administration. The testosterone level of the rats in various groups was determined by using radioimmune method. The index of testis was determined. Control group was pathological model group. In control group, rats treated by cyclophosphamide (CYE). Rats treated by ICN+CYE in treatment group.

peritoneal macrophage = assay: Effect of ICN on phagocytosis of peritoneal macrophage; type: in vivo; settings: mice, ICN 5.5 mg/kg i.p. daily for 5 days, cyclophosphamide 4.5 mg/kg; macrophages with phagocytized chick red blood cells per 100 macrophages
Description: The control mice were injected with same volume of normal saline. These injections were repeated daily for 5 days, both treated and control group were injected intraperitoneally with cyclosphosphamide. The dosage of cyclophosphamide is 4.5 mg/kg. The same experimental procedure for example 3, 4 and 5 in testing mice were used. Added 0.02 ml of 5% washed chick red blood cell suspension to 0.5 ml of the peritoneal exudates. Shook gently to mix and incubate at 37° C. for 5 minutes. Dipped two cover slips, closed to each other, in the above mixture and incubated for 30 minutes for the migration of the macrophages along the cover slips, fixed and stained with Sharma stain. Examined microscopically for: Phagocytic rate—number of macrophages with phagocytized chick red blood cells per 100 macrophages counted. Method of animal model is regular.

[1] = tested on: bone marrow stem cells (CFU-S); assay: Effects of ICN on hemopoietic system (spleen colony assay); type: in vivo, mice
Excerpt: With increased cells in bone-marrow (BMC), endogenous colonies in spleen and higher ^3H-TdR uptake in marrow and spleen. The level of serum colony stimulating factor (CSF) increased after injection.

human blood lymphocytes = assay: Effects of ICN on immune function of human blood lymphocytes (3H-TdR incorporation); type: cell-based; settings: for CPM (3H-TdR incorporation into lymphocytes): ICN added to culture medium
Description: 2 ml of venous blood, heparinized was obtained from each of the participants. […] MEM was supplemented with 0.125 ml of heat-inactivated fetal calf serum, 100 units of Penicillin and 0.1 mg of streptomycin per ml of medium. Culture medium was divided into treated (ICN) and control group. ICN was added to the culture medium of treatment group. […] The ^3H-thymidine (^3H-TdR) was added into all the cultures (2 μci/ml) for last 12 hours of culture. The cells were harvested on 0.45 μm filters, washed with phosphate buffer (ph 7.4) and bleached with H2O2. The filters were then dried and the incorporation of ^3H-TdR into lymphocytes cell was measured by scintillation counter.

[2] = mice treated by cyclophosphamide

Substance: Icariin [ICN]
- Ejaculation proportion (male mice; male mice, 15th day): 93%
- treatment of infertility (in words) (male mice; summary of Table 4): marked efficiency
- IL-2 (U/ml) ± SD (interleukin-2 (rIL-2)): 79.0 ± 8.5 U/ml
- protection of white blood cells from killing effect of cyclophosphamide (white blood cells; rats): protected
- White blood cells × 10^3/cm^3 ± SD (white blood cells; rats treated by cyclophosphamide, 10 days treatment): 12.8 ± 2.0* 10^3/cm^3
- Lipoperoxides (Lipoperoxides; 1 h): 0.75 ± 0.08 mmol MDA/g liver protein
- Lipoperoxides (Lipoperoxides; 3 h): 0.70 ± 0.07 mmol MDA/g liver protein
- Lipoperoxides (Lipoperoxides; 6 h): 0.80 ± 0.9 mmol MDA/g liver protein
- Lipoperoxides (Lipoperoxides; 12 h): 0.70 ± 0.9 mmol MDA/g liver protein
- Lipoperoxides (Lipoperoxides; 24 h): 1.0 ± 0.12 mmol MDA/g liver protein
- CPM ± SD (lymphoblastoid transformation) (lymphocytes): 1150 ± 120 CPM
- Testosterone level (testosterone; rats treated by ICN+CYE (cyclophosphamide), killed 30th day after administration, X ± SD): 154.6 ± 19.8 ng/dL
- level of testosterone (in words) (testosterone; summary of Table 1): increase the level of testosterone significantly
- Phagocytic (rate ± SD) (peritoneal macrophage): 28.5 ± 3.0
- protection of stem cells of bone marrow from killing effect of cyclophosphamide ([1]; mice): protected
- 3H-TdR uptake in marrow and spleen [1, 2]: higher
- cells in bone-marrow (BMC) [1, 2]: increased
- endogenous colonies in spleen [1, 2]: increased
- recovery rate of hemopoieses [1, 2]: markedly improve
- Mean (CFU-S ± SD) ([1]; mice treated by cyclophosphamide, spleen colony assay): 27.2 ± 3.0
- CPM (3H-TdR incorporation into lymphocytes) (human blood lymphocytes; Old (n = 20)): 2500 ± 350 CPM
- CPM (3H-TdR incorporation into lymphocytes) (human blood lymphocytes; Young (n = 20)): 8155 ± 986 CPM
- human immune function (in words) (human blood lymphocytes; summary of Table 5-10): increase human immune function significantly
